Patent US20250188040A1, “PHARMACEUTICAL COMPOSITIONS COMPRISING WRN HELICASE INHIBITORS” (Vividion Therapeutics, Inc., priority 2022, published 2025)

How the values were obtained:
WRN C727 = target: T1, WRN C727 (Homo sapiens, UniProt Q14191); assay: Target engagement, in vitro (lysate), OCI-AML2; format: binding; conditions: read-out: OCI-AML2 WRN C727 TE50 in vitro (lysate)
T1 construct: endogenous in cells; host or cells: OCI-AML2
In short: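 OCI-AML2 intact cells or lysates dosed with compound, then a cysteine-reactive probe; after trypsin digestion, probe-labelled peptides were streptavidin-enriched and quantified by nano-LC parallel reaction monitoring MS. Engagement (%) relative to DMSO controls.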

SW480 cells = assay: Cell growth assay (CellTiter-Glo 2.0), SW480 MSS cell line; conditions: Homo sapiens, SW480, 120 h, read-out: Cell Growth Inhibition GI50 SW480
Description: (§1) The effects of compound on cellular viability were determined using the CellTiter-Glo® 2.0 Luminescent Cell Viability Assay (Promega, Madison, WI).
(§2) SW480 cells were seeded at 1,000 cells per well in Eagle's Minimum Essential Medium (EMEM) with 10% FBS. Both cell lines were seeded in a volume of 50 μL medium per well. […] The concentration range was adjusted as needed for compounds of different potencies. The cells treated with compounds were incubated for 5 days at 37° C. in 5% CO2. […] The plate was then read on a Clariostar plate reader (BMG Labtech, Cary, NC) in luminescence mode. The previously measured baseline cell viability was subtracted from the luminescence value of each well, and cell viability (% of DMSO) was plotted as a function of log compound concentration. The EC50 was then calculated for each compound using Dotmatics Software (San Diego, CA).

HCT 116 cells = assay: Cell growth assay (CellTiter-Glo 2.0), HCT 116 MSI-H cell line; conditions: Homo sapiens, HCT-116, 120 h, read-out: Cell Growth Inhibition GI50 HCT-116
Description: as §1, §2

[1] = target: hWRN(519-1227)_C-H3CV-GFP-10His (Homo sapiens, UniProt Q14191); assay: Helicase Assay for WRN Inhibition (ATP-dependent, fluorescence based); conditions: WRN Helicase IC50, 30 min preincubation with ATP, 30 min reaction
Chain of hWRN(519-1227)_C-H3CV-GFP-10His (Q14191 519-1227): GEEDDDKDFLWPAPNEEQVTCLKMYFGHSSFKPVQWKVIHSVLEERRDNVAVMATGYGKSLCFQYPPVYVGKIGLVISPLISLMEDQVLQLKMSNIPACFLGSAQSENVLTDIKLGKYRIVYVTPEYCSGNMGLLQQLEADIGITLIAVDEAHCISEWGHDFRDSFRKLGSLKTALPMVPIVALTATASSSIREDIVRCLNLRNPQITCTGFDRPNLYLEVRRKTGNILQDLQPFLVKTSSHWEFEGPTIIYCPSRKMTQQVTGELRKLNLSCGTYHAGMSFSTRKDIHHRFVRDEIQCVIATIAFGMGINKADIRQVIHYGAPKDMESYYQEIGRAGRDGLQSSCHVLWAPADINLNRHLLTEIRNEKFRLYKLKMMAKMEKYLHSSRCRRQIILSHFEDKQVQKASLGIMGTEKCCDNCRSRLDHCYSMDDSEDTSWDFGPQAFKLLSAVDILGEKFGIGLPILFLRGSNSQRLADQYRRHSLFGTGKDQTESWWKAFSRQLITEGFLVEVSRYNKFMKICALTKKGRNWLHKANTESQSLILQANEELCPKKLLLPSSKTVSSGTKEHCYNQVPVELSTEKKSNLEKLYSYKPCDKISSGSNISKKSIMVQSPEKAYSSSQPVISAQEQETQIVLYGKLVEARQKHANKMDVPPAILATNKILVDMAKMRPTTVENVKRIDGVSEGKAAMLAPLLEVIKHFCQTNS
Description: Effects of compounds on WRN helicase activity were assessed with the Helicase Assay for WRN Inhibition. This is an ATP-dependent (inclusion of ATP is important and is required for this assay) fluorescence based assay using recombinant WRN and a fluorogenic DNA substrate.
WRN activity was normalized to signal from wells without WRN protein (background, 0% activity) and wells with protein treated only with DMSO (positive control, 10000 activity). For each compound the potency of inhibition (IC50) was determiined using Graphpad Prism.

T1 sequence (Q14191 whole entry): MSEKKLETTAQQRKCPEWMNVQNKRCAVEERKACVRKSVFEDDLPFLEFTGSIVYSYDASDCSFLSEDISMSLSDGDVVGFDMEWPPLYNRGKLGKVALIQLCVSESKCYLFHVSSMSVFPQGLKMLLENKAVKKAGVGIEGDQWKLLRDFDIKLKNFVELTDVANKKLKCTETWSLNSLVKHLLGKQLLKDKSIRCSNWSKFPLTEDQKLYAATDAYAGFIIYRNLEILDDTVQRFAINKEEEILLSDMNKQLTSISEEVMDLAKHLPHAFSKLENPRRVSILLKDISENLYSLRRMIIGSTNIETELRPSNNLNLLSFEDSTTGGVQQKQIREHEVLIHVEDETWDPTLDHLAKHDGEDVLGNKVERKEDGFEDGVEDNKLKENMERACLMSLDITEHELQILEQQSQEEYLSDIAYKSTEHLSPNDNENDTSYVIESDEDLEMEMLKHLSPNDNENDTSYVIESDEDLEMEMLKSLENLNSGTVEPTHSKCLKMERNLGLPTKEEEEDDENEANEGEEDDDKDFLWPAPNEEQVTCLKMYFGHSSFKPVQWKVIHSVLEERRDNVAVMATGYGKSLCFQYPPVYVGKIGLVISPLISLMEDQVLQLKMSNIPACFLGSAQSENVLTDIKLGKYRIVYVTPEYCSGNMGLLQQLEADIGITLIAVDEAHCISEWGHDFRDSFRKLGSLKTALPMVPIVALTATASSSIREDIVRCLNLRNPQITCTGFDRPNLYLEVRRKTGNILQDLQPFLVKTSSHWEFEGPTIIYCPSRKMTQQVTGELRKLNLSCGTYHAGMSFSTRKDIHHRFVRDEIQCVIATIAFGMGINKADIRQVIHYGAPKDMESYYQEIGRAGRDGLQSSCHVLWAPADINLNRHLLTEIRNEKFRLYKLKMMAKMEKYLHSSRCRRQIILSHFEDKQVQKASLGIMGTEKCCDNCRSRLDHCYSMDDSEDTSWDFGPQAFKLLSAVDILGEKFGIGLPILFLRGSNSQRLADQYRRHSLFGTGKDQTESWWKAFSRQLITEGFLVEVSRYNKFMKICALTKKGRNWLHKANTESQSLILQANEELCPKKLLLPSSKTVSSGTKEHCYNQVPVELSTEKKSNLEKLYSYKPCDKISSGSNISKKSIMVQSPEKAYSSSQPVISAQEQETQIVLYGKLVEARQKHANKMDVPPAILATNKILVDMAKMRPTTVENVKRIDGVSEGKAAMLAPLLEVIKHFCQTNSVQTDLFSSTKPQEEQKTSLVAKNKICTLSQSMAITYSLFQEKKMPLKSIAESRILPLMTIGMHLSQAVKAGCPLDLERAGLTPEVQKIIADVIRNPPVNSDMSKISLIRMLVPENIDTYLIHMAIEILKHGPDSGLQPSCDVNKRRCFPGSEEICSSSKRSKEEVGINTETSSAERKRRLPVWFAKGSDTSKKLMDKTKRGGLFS

| IC50 (WRN C727) [µM] | GI50 (SW480 cells) [µM] | GI50 (HCT 116 cells) [µM] | IC50 [1] [µM] | Structure (SMILES) |
| --- | --- | --- | --- | --- |
| 20 | 12 | 2.2 | 6.8 | C[C@@H](/C=C/S(C)(=O)=O)NC(=O)c1cnc(N2CCC[C@@H]2C)nc1Oc1ccccc1 [Example 175, 2-((S)-2-methylpyrrolidin-1-yl)-N—((S,E)-4-(methylsulfonyl)but-3-en-2-yl)-4-phenoxypyrimidine-5-carboxamide] |
| 1.66 | 13 | 0.44 | 1.6 | C[C@@H]1CCCN1c1ncc(C(=O)N[C@@H](C)/C=C/S(C)(=O)=O)c(Oc2ccccc2)n1 [Example 176, 2-((R)-2-methylpyrrolidin-1-yl)-N—((S,E)-4-(methylsulfonyl)but-3-en-2-yl)-4-phenoxypyrimidine-5-carboxamide] |
| 27.2 | 17 | 0.0884 | 0.87 | CS(=O)(=O)/C=C/[C@@H](NC(=O)c1cnc(N2CCC2)nc1Oc1ccccc1)C1CC1 [Example 181, (S,E)-2-(azetidin-1-yl)-N-(1-cyclopropyl-3-(methylsulfonyl)allyl)-4-phenoxypyrimidine-5-carboxamide] |
| 4.86 | 19 | 0.108 | 1.1 | CS(=O)(=O)/C=C/[C@@H](NC(=O)c1cnc(N2CC(F)C2)nc1Oc1ccccc1)C1CC1 [Example 182, (S,E)-N-(1-cyclopropyl-3-(methylsulfonyl)allyl)-2-(3-fluoroazetidin-1-yl)-4-phenoxypyrimidine-5-carboxamide] |
| 1.3 | 3.1 | 0.191 | 2.4 | CN(CC(F)(F)F)c1ncc(C(=O)N[C@H](/C=C/S(C)(=O)=O)C2CC2)c(Oc2ccccc2)n1 [Example 184, (S,E)-N-(1-cyclopropyl-3-(methylsulfonyl)allyl)-2-(methyl(2,2,2-trifluoroethyl)amino)-4-phenoxypyrimidine-5-carboxamide] |
| 1.72 | 5.4 | 0.0274 | 0.239 | CCN(C)c1ncc(C(=O)N[C@H](/C=C/S(C)(=O)=O)C2CC2)c(Oc2ccccc2)n1 [Example 185, (S,E)-N-(1-cyclopropyl-3-(methylsulfonyl)allyl)-2-(ethyl(methyl)amino)-4-phenoxypyrimidine-5-carboxamide] |

The remaining lines, values behind:

| Structure (SMILES) | IC50 (WRN C727) [µM] | GI50 (SW480 cells) [µM] | GI50 (HCT 116 cells) [µM] | IC50 [1] [µM] |
| --- | --- | --- | --- | --- |
| C[C@@H](/C=C/S(C)(=O)=O)NC(=O)c1cnc(OC2CCCC2)nc1Oc1ccccc1 [Example 165, (S,E)-2-(cyclopentyloxy)-N-(4-(methylsulfonyl)but-3-en-2-yl)-4-phenoxypyrimidine-5-carboxamide] | 22.6 | > 10 | 2.7 | 4.1 |
| C[C@@H](/C=C/S(C)(=O)=O)NC(=O)c1cnc(N2C3CCC2CC3)nc1Oc1ccccc1 [Example 166, (S,E)-2-(7-azabicyclo[2.2.1]heptan-7-yl)-N-(4-(methylsulfonyl)but-3-en-2-yl)-4-phenoxypyrimidine-5-carboxamide] | 8.93 | > 10 | 0.69 | 3.6 |
| C[C@@H](/C=C/S(C)(=O)=O)NC(=O)c1cnc(N2CCCC2)nc1Oc1ccccc1 [Example 168, (S,E)-N-(4-(methylsulfonyl)but-3-en-2-yl)-4-phenoxy-2-(pyrrolidin-1-yl)pyrimidine-5-carboxamide] | 9.23 | 17 | 1.6 | 4.4 |
| C[C@@H]1CC[C@H](C)N1c1ncc(C(=O)N[C@@H](C)/C=C/S(C)(=O)=O)c(Oc2ccccc2)n1 [Example 171, 2-((2R,5S)-2,5-dimethylpyrrolidin-1-yl)-N—((S,E)-4-(methylsulfonyl)but-3-en-2-yl)-4-phenoxypyrimidine-5-carboxamide] | 4.45 | 8.1 | 0.434 | 1.19 |
| C[C@@H](/C=C/S(C)(=O)=O)NC(=O)c1cnc(N2CCCC2(C)C)nc1Oc1ccccc1 [Example 174, (S,E)-2-(2,2-dimethylpyrrolidin-1-yl)-N-(4-(methylsulfonyl)but-3-en-2-yl)-4-phenoxypyrimidine-5-carboxamide] | 11.2 | 11 | 2.2 | 6.8 |
